Data set [1] relates to Influenza strain A549 A/WSN/33 (H1N1). Put plainly: microbe, parasite or virus in culture. In kind it is cell-based. The settings on record: Influenza A virus, A549, 20 h, A549 cells, influenza A/WSN/33 (H1N1), 20 hours incubation; read-out: A549_A(H1N1) EC50.
Data set [2] can be described thus: in vitro. The settings on record: human, CC50, uninfected A549 cells, CellTiter-Glo. A general note: Cellular ATP, detected with luciferase, serves as a proxy for viable cell number.

As usually defined, the EC50 is the midpoint of the concentration-response curve. The term CC50 denotes the concentration that lowers cell viability or growth by half. Read a low CC50 as harm at low concentration. In the case of `O=C1c2c(O)c(=O)ccn2N2CN1CCCCOc1c(F)cccc1[C@@H]2c1ccccc1` (single isomer, unassigned) [Compound 114B, (18*S)-4-fluoro-12-hydroxy-18-phenyl-6,7,8,9-tetrahydro-18H-10,17-methanobenzo[b]pyrido[1,2-f][1]oxa[5,6,9]triazacyclotridecine-11,13-dione], in data set [1], the EC50 is over 0.1 µM. The same compound returned a CC50 in data set [2] of over 0.2 µM.

Turning to `CC[C@H]1/C=C/COc2c(ccc(F)c2F)[C@@H](c2ccccc2)N2CN1C(=O)c1c(O)c(=O)ccn12` [Compound 101AA, (9S,18R,E)-9-ethyl-3,4-difluoro-12-hydroxy-18-phenyl-6,9-dihydro-18H-10,17-methanobenzo[b]pyrido[1,2-f][1]oxa[5,6,9]triazacyclotridecine-11,13-dione], in data set [1], the EC50 is 0.0007 µM. This compound registered a CC50 in data set [2] of over 0.1 µM.

Regarding `CC[C@H]1/C=C/COc2cc(Cl)ccc2[C@H](c2ccccc2)N2CN1C(=O)c1c(O)c(=O)ccn12` (single isomer, unassigned) [Compound 97BB], the EC50 in data set [1] was over 0.5 µM. This compound registered a CC50 in data set [2] of over 1 µM.

As to `O=C1c2c(O)c(=O)ccn2N2CN1C1(/C=C/COc3ccccc3[C@H]2c2ccccc2)CCC1` (single isomer, unassigned) [Compound 106A, (18′*R,E)-12′-hydroxy-18′-phenyl-6′H,18′H-spiro[cyclobutane-1,9′-[10,17]methanobenzo[b]pyrido[1,2-f][1]oxa[5,6,9]triazacyclotridecine]-11′,13′-dione], the EC50 in data set [1] stood at 0.0035 µM. Further, the CC50 in data set [2] was over 0.2 µM.

On to `CC[C@H]1/C=C/COc2c(F)cccc2[C@H](c2ccccn2)N2CN1C(=O)c1c(O)c(=O)ccn12` (single isomer, unassigned) [Compound 154BB, (9*S,18*R,*E)-9-ethyl-4-fluoro-12-hydroxy-18-(pyridin-2-yl)-6,9-dihydro-18H-10,17-methanobenzo[b]pyrido[1,2-f][1]oxa[5,6,9]triazacyclotridecine-11,13-dione], for which, in data set [1], the EC50 came to 0.0034 µM. In data set [2], the CC50 was over 0.1 µM.

As for `O=C1c2c(O)c(=O)ccn2N2CN1CC/C=C/COc1c(ccc(F)c1F)[C@@H]2c1ccccc1` (single isomer, unassigned) [Compound 112A, (2*S,E)-33,34-difluoro-15-hydroxy-2-phenyl-12,13,14,16-tetrahydro-11H-4-oxa-1(1,3)-pyrido[2,1-f][1,2,4]triazina-3(1,2)-benzenacyclononaphan-6-ene-14,16-dione], in data set [1], the EC50 was 0.0038 µM. In data set [2], this compound yielded a CC50 of over 0.2 µM.

With `O=C1c2c(O)c(=O)ccn2N2CN1C/C=C/CCc1cc(F)ccc1[C@@H]2c1ccccn1` (single isomer, unassigned) [Compound 57A, (16*R,E)-13-fluoro-4-hydroxy-16-(pyridin-2-yl)-7,10,11,16-tetrahydro-6,17-methanobenzo[k]pyrido[1,2-b][1,2,5]triazacyclotridecine-3,5-dione], the EC50 in data set [1] came to 0.032 µM. Moreover, the CC50 in data set [2] is over 2 µM.

Consider `C[C@@H]1/C=C/COc2c(F)cccc2[C@@H](c2ccccc2)N2CN1C(=O)c1c(O)c(=O)ccn12` (single isomer, unassigned) [Compound 141AA, (9*R,18*R,E)-4-fluoro-12-hydroxy-9-methyl-18-phenyl-6,9-dihydro-18H-10,17-methanobenzo[b]pyrido[1,2-f][1]oxa[5,6,9]triazacyclotridecine-11,13-dione], for which the EC50 in data set [1] is 0.0015 µM. This compound also displayed a CC50 in data set [2] of over 0.05 µM.

Take `C[C@H]1/C=C/COc2cc(F)c(F)c3c2[C@@H](c2ccccc2SC3)N2CN1C(=O)c1c(O)c(=O)ccn12` (single isomer, unassigned) [Compound 162B, (9*S,17a*S,*E)-24,25-difluoro-12-hydroxy-9-methyl-2,6,9,17a-tetrahydro-3,4-(epiprop[1]en[1]yl[3]ylidene)-10,17-methanobenzo[6,7]thiepino[4,5-c]pyrido[1,2-f][1]oxa[5,6,9]triazacyclotridecine-11,13-dione]: in data set [1], the EC50 was 0.00023 µM. The compound further showed a CC50 in data set [2] of over 0.1 µM.

In the case of `O=C1c2c(O)c(=O)ccn2N2CN1CC/C=C\COc1cc(F)c(F)c3c1[C@@H]2c1ccccc1SC3` (single isomer, unassigned) [Compound 88A, (23b*R, Z)-16,17-difluoro-6-hydroxy-10,13,18,23b-tetrahydro-9H-1,8-methano[1]benzothiepino[5,4,3-lm]pyrido[2,1-i][1,7,10,11]benzoxatriazacyclotetradecine-5,7-dione], in data set [1], the EC50 is over 0.5 µM. The compound further returned a CC50 in data set [2] of over 1 µM.

With `O=C1c2c(O)c(=O)ccn2N2CN1C/C=C\COc1c(cccc1C(F)(F)F)[C@H]2c1ccccc1` (single isomer, unassigned) [Compound 130A, (18*R,Z)-12-hydroxy-18-phenyl-4-(trifluoromethyl)-6,9-dihydro-18H-10,17-methanobenzo[b]pyrido[1,2-f][1]oxa[5,6,9]triazacyclotridecine-11,13-dione], in data set [1], the EC50 is 0.0048 µM. The compound also gave a CC50 in data set [2] of over 0.2 µM.

Turning to `O=C1c2c(O)c(=O)ccn2N2CN1CCCCCc1ccccc1[C@H]2c1ccccn1` (single isomer, unassigned) [Compound 40B, (17*S)-4-hydroxy-16-(pyridin-2-yl)-7,8,9,10,11,16-hexahydro-6,17-methanobenzo[k]pyrido[1,2-b][1,2,5]triazacyclotridecine-3,5-dione], the EC50 in data set [1] was over 1 µM. The compound further came in with a CC50 in data set [2] of over 2 µM.

As for `O=C1c2c(O)c(=O)ccn2N2CN1C/C=C\CCc1cnccc1[C@H]2c1ccccc1` (single isomer, unassigned) [Compound 56A, (18*R,*Z)-12-hydroxy-18-phenyl-5,6,9,18-tetrahydro-10,17-methanodipyrido[1,2-b:3′,4′-k][1,2,5]triazacyclotridecine-11,13-dione], the EC50 in data set [1] is over 1 µM. For the same compound, the CC50 in data set [2] was over 2 µM.

`O=C1c2c(O)c(=O)ccn2N2CN1C/C=C\COc1cc(F)c(F)c3c1[C@H]2c1ccccc1SC3` (single isomer, unassigned) [Compound 140D, (21a*S,*Z)-24,25-difluoro-16-hydroxy-6,10,13,21a-tetrahydro-7,8-(epiprop[1]en[1]yl[3]ylidene)-14,21-methanobenzo[6,7]thiepino[4,5-c]pyrido[1,2-f][1]oxa[5,6,9]triazacyclotridecine-15,17-dione]: in data set [1], the EC50 was 0.0012 µM. Also, the CC50 in data set [2] was over 0.05 µM.

In the case of `O=C1c2c(O)c(=O)ccn2N2CN1CC/C=C\COc1ccc(F)c3c1[C@@H]2c1cccc(F)c1SC3` (single isomer, unassigned) [Compound 151A, (1*R,13*Z)-20,25-difluoro-7-hydroxy-16-oxa-23-thia-2,3,10-triazahexacyclo[15.12.1.12,10.03,8.021,30.024,29]hentriaconta-4,7,13,17,19,21(30),24(29),25,27-nonaene-6,9-dione], the EC50 in data set [1] is over 0.05 µM. The compound also displayed a CC50 in data set [2] of over 0.1 µM.

In the case of `O=C1c2c(O)c(=O)ccn2N2CN1C/C=C\CCc1ccncc1[C@H]2c1ccccc1` (single isomer, unassigned) [Compound 35A, (18*R,*Z)-12-hydroxy-18-phenyl-5,6,9,18-tetrahydro-10,17-methanodipyrido[1,2-b:4′,3′-k][1,2,5]triazacyclotridecine-11,13-dione], the EC50 in data set [1] came out at 0.069 µM. Also, the CC50 in data set [2] was over 2 µM.

Take `O=C1c2c(O)c(=O)ccn2N2CN1C/C=C/COc1c(F)cccc1[C@@H]2c1ccccc1C1CC1` [Compound 123B, (18S,E)-18-(2-cyclopropylphenyl)-4-fluoro-12-hydroxy-6,9-dihydro-18H-10,17-methanobenzo[b]pyrido[1,2-f][1]oxa[5,6,9]triazacyclotridecine-11,13-dione]: the EC50 in data set [1] is over 0.1 µM. This compound gave a CC50 in data set [2] of over 0.2 µM.

Turning to `O=C1c2c(O)c(=O)ccn2N2CN1C1(/C=C/COc3c(F)cccc3[C@H]2c2ccccc2)CCC1` (single isomer, unassigned) [Compound 145A, (18′*R,E)-4′-fluoro-12′-hydroxy-18′-phenyl-6′H,18′H-spiro[cyclobutane-1,9′-[10,17]methanobenzo[b]pyrido[1,2-f][1]oxa[5,6,9]triazacyclotridecine]-11′,13′-dione], the EC50 in data set [1] stood at 0.0031 µM. The CC50 in data set [2] was over 0.1 µM.

For `O=C1c2c(O)c(=O)ccn2N2CN1C[C@H]1C[C@@H](COc3cccc4c3[C@@H]2c2ccccc2SC4)C1` (single isomer, unassigned) [Compound 161A], the EC50 in data set [1] was over 0.05 µM. In addition, the CC50 in data set [2] is over 0.1 µM.

Take `O=C1c2c(O)c(=O)ccn2N2CN1C/C=C\COc1cccc3c1[C@H]2c1ccccc1SC3` [Compound 46B, (21S,Z)-16-hydroxy-6,10,13,21a-tetrahydro-7,8-(epiprop[1]en[1]yl[3]ylidene)-14,21-methanobenzo[6,7]thiepino[4,5-c]pyrido[1,2-f][1]oxa[5,6,9]triazacyclotridecine-15,17-dione]: the EC50 in data set [1] amounted to 0.003 µM. In data set [2], the CC50 is over 0.1 µM.

`C[C@@H]1C/C=C/COc2c(F)cccc2[C@H](c2ccccc2)N2CN1C(=O)c1c(O)c(=O)ccn12` (single isomer, unassigned) [Compound 100BB, (2*S,9*R,*E)-33-fluoro-15-hydroxy-9-methyl-2-phenyl-12,13,14,16-tetrahydro-11H-4-oxa-1(1,3)-pyrido[2,1-f][1,2,4]triazina-3(1,2)-benzenacyclononaphan-6-ene-14,16-dione]: the EC50 in data set [1] is 1.16 µM. Besides, in data set [2], the midpoint of cytotoxicity, the CC50, lay at 32.5 µM.

In the case of `O=C1c2c(O)c(=O)ccn2N2CN1C/C=C\COc1c(Cl)cccc1[C@@H]2c1ccccc1` (single isomer, unassigned) [Compound 75B, (18*S,Z)-4-chloro-12-hydroxy-18-phenyl-6,9-dihydro-18H-10,17-methanobenzo[b]pyrido[1,2-f][1]oxa[5,6,9]triazacyclotridecine-11,13-dione], the EC50 in data set [1] was 0.003 µM. This compound gave a CC50 in data set [2] of over 0.2 µM.

The values above are taken from patent US11312727B1, “Macrocyclic flu endonuclease inhibitors” (Janssen BioPharma, Inc., priority 2018, dated 2022).
